Experimental data as given in US20180256673A1, “METHODS FOR TREATING FUNGAL INFECTIONS” (priority 2015, published 2018).
In brackets after ≈: the same amount, converted by molar mass.

Tests used:
[1] = tested on: azole-resistant Candida albicans R357 strain; assay: microbe, parasite or virus in culture; format: cell-based
C. albicans NRRL Y-477 [2] = assay: microbe, parasite or virus in culture; format: cell-based, Candida albicans
[3] = tested on: C. glabrata ATCC 90030, ATCC 2001; assay: microbe, parasite or virus in culture; format: cell-based, Candida glabrata
C. parapsilosis CP02 [4] = assay: microbe, parasite or virus in culture; format: cell-based, Candida parapsilosis
C. krusei ATCC 6258 [5] = assay: microbe, parasite or virus in culture; format: cell-based, Candida krusei
[6] = tested on: azole-resistant Candida albicans (R357); assay: Disseminated infection model in neutropenic ICR mice, kidney fungal counts (Example 10, Tables 22-23); format: in vivo
[7] = tested on: Aspergillus fumigatus (ATCC 13073); assay: Neutropenic mouse model of disseminated aspergillosis, survival; format: in vivo; details: in vivo
[8] = Solubility of test articles in vehicle, visual observation (Table 22); format: physicochemical
Description: Test Articles. […] Amphotericin B and fluconazole were in powder form. Amphotericin B was dissolved in 0.9% NaCl. Fluconazole was dissolved in water (WFI: water for injection).

C. albicans NRRL Y-477 [9] = assay: Broth microdilution MIC (CLSI), Examples 3 and 4
Description: Antifungal susceptibility testing. […] MIC assays were performed in triplicate.

[10] = tested on: C. glabrata ATCC 90030, ATCC 2001; assay: Broth microdilution MIC (CLSI), Examples 3 and 4; details: for Broth MIC: 24 h, ~50% inhibition
Description: (§1) Antifungal susceptibility testing. Candida strains were cultured aerobically at 35° C. on SDA plates or in RPMI 1640 broth (pH 7.0). […] MIC assays were performed in triplicate.

C. parapsilosis CP02 [11] = assay: Broth microdilution MIC (CLSI), Examples 3 and 4; details: CP02 wild-type; 24 h, ~50% inhibition
Description: as §1

C. krusei ATCC 6258 [12] = assay: Broth microdilution MIC (CLSI), Examples 3 and 4; details: ATCC 6258 wild-type; 24 h, ~50% inhibition
Description: as §1

C[C@@H]1[C@H](O)[C@@H](C)/C=C/C=C/C=C/C=C/C=C/C=C/C=C/[C@H](O[C@@H]2O[C@H](C)[C@@H](O)[C@H](N)[C@@H]2O)C[C@@H]2O[C@](O)(C[C@@H](O)C[C@@H](O)[C@H](O)CC[C@@H](O)C[C@@H](O)CC(=O)O[C@H]1C)C[C@H](O)[C@H]2C(=O)O [AMB, amphotericin B]
Susceptibility (CLSI) ([1]; C. albicans R357): S
MIC ([1]; endpoint 100% inhibition): 0.5 µg/mL (≈ 0.541 µM)
MIC (C. albicans NRRL Y-477 [2]; NRRL Y-477 P20-1, selecting drug ANID, Fks1 HS1 S645Y, 48 h read): 0.5 µg/mL (≈ 0.541 µM)
MIC (C. albicans NRRL Y-477 [2]; NRRL Y-477 P20-1, selecting drug CAS): 0.25 µg/mL (≈ 0.271 µM)
MIC (C. albicans NRRL Y-477 [2]; NRRL Y-477 P20-1, selecting drug CMP1, 48 h read): 0.5 µg/mL (≈ 0.541 µM)
MIC ([3]; ATCC 2001 P20-2, selecting drug ANID, Fks1 HS1 D632Y): 1 µg/mL (≈ 1.08 µM)
MIC ([3]; ATCC 2001 P20-2, selecting drug CAS): 0.5 µg/mL (≈ 0.541 µM)
MIC ([3]; ATCC 2001 P20-2, selecting drug CMP1): 0.25 µg/mL (≈ 0.271 µM)
MIC ([3]; ATCC 90030 P20-1, selecting drug ANID, Fks2 HS1 D666I, 48 h read): 0.5 µg/mL (≈ 0.541 µM)
MIC ([3]; ATCC 90030 P20-1, selecting drug CAS, Fks2 HS1 F659I D666Y, 48 h read): 0.25 µg/mL (≈ 0.271 µM)
MIC ([3]; ATCC 90030 P20-2, selecting drug CMP1): 0.5 µg/mL (≈ 0.541 µM)
MIC (C. parapsilosis CP02 [4]; CP02 P20-1, selecting drug ANID): 0.5 µg/mL (≈ 0.541 µM)
MIC (C. parapsilosis CP02 [4]; CP02 P20-1, selecting drug CAS): 0.5 µg/mL (≈ 0.541 µM)
MIC (C. parapsilosis CP02 [4]; CP02 P20-1, selecting drug CMP1): 0.5 µg/mL (≈ 0.541 µM)
MIC (C. krusei ATCC 6258 [5]; ATCC 6258 P20-2, selecting drug ANID): 1 µg/mL (≈ 1.08 µM)
MIC (C. krusei ATCC 6258 [5]; ATCC 6258 P20-2, selecting drug CAS, Fks1 HS2 I1366S): 1 µg/mL (≈ 1.08 µM)
MIC (C. krusei ATCC 6258 [5]; ATCC 6258 P20-2, selecting drug CMP1, Fks1 HS2 I1366S): 1 µg/mL (≈ 1.08 µM)
reduction in fungal counts ([6]; 3 mg/kg IV once, 72 hr time point): two log reduction
antimicrobial effect versus vehicle (one-way ANOVA, Dunnett's test) ([6]; 48 and 72 hr after infection, Compound 1 3, 10, 30 mg/kg IP, amphotericin B 1 and 3 mg/kg IV, fluconazole 20 mg/kg PO): Significant effects
survival versus vehicle [7]: significantly longer survival than vehicle
Solubility [8]: S
MIC (C. albicans NRRL Y-477 [9]; NRRL Y-477 spontaneous mutant, Fks1 HS1 S645P): 0.25 µg/mL (≈ 0.271 µM)
Broth MIC (C. albicans NRRL Y-477 [9]; NRRL Y-477 wild-type, 24 h, ~50% inhibition): 0.5 µg/mL
MIC ([10]; ATCC 2001 spontaneous mutant, Fks2 HS1 D666N): 0.5 µg/mL (≈ 0.541 µM)
MIC ([10]; ATCC 2001 spontaneous mutant, Fks2 HS1 D666Y): 0.5 µg/mL (≈ 0.541 µM)
MIC ([10]; ATCC 2001 spontaneous mutant, Fks2 HS1 R665G): 0.25 µg/mL (≈ 0.271 µM)
MIC ([10]; ATCC 2001 spontaneous mutant, Fks2 HS1 S663F): 0.25 µg/mL (≈ 0.271 µM)
MIC ([10]; ATCC 2001 spontaneous mutant, Fks2 HS1 ΔF659): 0.25 µg/mL (≈ 0.271 µM)
MIC ([10]; ATCC 2001 spontaneous mutant, Fks2 HS2 R1378S): 0.25 µg/mL (≈ 0.271 µM)
Broth MIC ([10]; ATCC 2001 wild-type): 0.5 µg/mL
MIC ([10]; ATCC 90030 spontaneous mutant, Fks2 HS1 D666H): 0.5 µg/mL (≈ 0.541 µM)
MIC ([10]; ATCC 90030 spontaneous mutant, Fks2 HS1 ΔF659): 0.5 µg/mL (≈ 0.541 µM)
Broth MIC ([10]; ATCC 90030 wild-type): 0.5 µg/mL
Broth MIC (C. parapsilosis CP02 [11]): 0.5 µg/mL
Broth MIC (C. krusei ATCC 6258 [12]): 1 µg/mL
